From publication PMC11546255, “Exploring the Frontier of Cyclic Dipeptides: A Bioinformatics Approach to Potential Therapeutic Applications in Schizophrenia” (International Journal of Molecular Sciences, 2024)

Experiments:
[1] = molecular target: T1, human SIGMA1 receptor (Homo sapiens, UniProt Q99720); assay: SIGMA1 filtration radioligand binding assay ([3H]DTG, membranes of transfected HEK293 cells); parameters: expressed in transfected cells; membrane/cell debris preparation; conditions: for SIGMA1 % Inhibition of Max Dose / inhibition at 20 µM: Max Dose 20.000 μM
T1 sequence (Q99720 whole entry): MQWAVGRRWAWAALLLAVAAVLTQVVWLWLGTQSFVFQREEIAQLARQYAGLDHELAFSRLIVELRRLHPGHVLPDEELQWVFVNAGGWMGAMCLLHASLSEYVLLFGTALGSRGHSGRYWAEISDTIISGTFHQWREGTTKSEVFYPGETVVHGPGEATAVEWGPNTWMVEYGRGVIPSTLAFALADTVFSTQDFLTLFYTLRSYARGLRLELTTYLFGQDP
Protocol: For SIGMA1 receptor expression in HEK293 cells, the human SIGMA1 receptor (U75283) in pcDNA 3.1(+) (Promega Corp., Madison, WI, USA) was used. In total, 2 μg of DNA was transfected in HEK293 cells (1,000,000 cells/dish) using FuGENE® HD Transfection Reagent (Promega Corp., Madison, WI, USA) according to the manufacturer’s recommendations. After 24 h, the medium was replaced by a medium containing the G418 antibiotic (300 μg/mL) (Burlington, MA, USA). The survival clones were scraped and cultured in individual dishes. After the cell amplification, they were harvested with trypsin and homogenized, then centrifuged at 50,000× g for 1 h, and the cell debris was used for the binding assay.
A SIGMA1 receptor-enriched membrane preparation was utilized for the binding assays at a 1.1 mg/mL concentration. Each assay well was loaded with 13 μg of this membrane preparation to ensure consistent receptor availability across all experimental conditions.
This methodical preparation ensures that the assay conditions are reproducible and that the concentration-dependent effects of the compounds can be accurately evaluated.
Reference and test compounds were diluted and transferred sequentially to the assay plate. We added non-specific binding compounds (low control, LC) and DMSO as the total binding high control (HC) according to the non-specific binding plate layout. We added 100 μL of the membrane stock solution and 100 μL of the radiolabeled ligand to the plate. We sealed the plates and shook them at 300 rpm under specified conditions. We filtered the reaction mixture through GF/B plates using a Filtermate-Harvester (PerkinElmer, Waltham, MA, USA, Cat: C961961), followed by washing with cold wash buffer, and dried and sealed the filter plates.
We added non-specific binding compounds (as the LC) and DMSO as the total binding HC according to the non-specific binding plate layout. Then, we added 100 μL of the membrane stock solution and 100 μL of the radiolabeled ligand to the plate. We sealed the plates and shook them at 300 rpm under specified conditions. […] After the binding experiment, we filtered the reaction mixture through GF/B plates using a Perkin Elmer Filtermate Harvester, washing each plate six times with a cold wash buffer. We dried the filter plates for 1 h at 50 °C. After drying, we sealed the bottom of the filter plate wells with Perkin Elmer Unifilter-96 backing tape. […] We counted the 3H on the filters using a Perkin Elmer MicroBeta2 Reader.
We analyzed the data using Prism 5. We fitted dose–response curves and determined the half maximal inhibitory concentration (IC50) using the “log(inhibitor) vs. response-variable slope” model.
We used the Z’-Prime equation for quality control, which can be written as follows: Z′ Factor=1−3×STDEVHC+3×STDEVLC/AVGHC − AVGLC∗100% where STDEVHC is the average standard deviation of MAX, STDEVLC is the average standard deviation of MIN, AVGHC is the average of MAX, and AVGLC is the average of MIN. Z’ must be ≥0.5 as the quality control standard.

[2] = molecular target: T1, human SIGMA1 receptor; assay: radioligand binding; filtration competition assay: membranes of HEK293 cells expressing human SIGMA1 (13 ug per well), [3H]DTG at 0.005 uM displaced by the test compound, max dose 20 uM, room temperature, GF/B filter plates
[3] = [3H]DTG 0.005 μM, membranes of HEK293 cells expressing human SIGMA1, read-out: SIGMA1 IC50
[4] = [3H]DTG 0.005 μM, membranes of HEK293 cells expressing human SIGMA1, read-out: SIGMA1 Ki

**Q.** For O=C1CNC(=O)[C@H](Cc2ccc(O)cc2)N1 [Cyclo(Gly-Tyr)], which “SIGMA1 % Inhibition of Max Dose” value [1] is on record?
**A.** The value was 42.82%.

**Q.** What about the IC50 [1, 3] of the same compound?
**A.** The IC50 was over 20 µM.

**Q.** And the Ki [1, 4]?
**A.** Its Ki is over 17.4 µM.

**Q.** For CC1NC(=O)CNC1=O (centres unmarked) [Cyclo(Ala-Gly)], which “SIGMA1 % Inhibition of Max Dose” value [1] is on record?
**A.** The value was 44.60%.

**Q.** And the IC50 [1, 3]?
**A.** Its IC50 is over 20 µM.

**Q.** What about the Ki [1, 4] of the same compound?
**A.** The Ki was over 17.4 µM.

**Q.** C[C@@H]1NC(=O)[C@H](Cc2cnc[nH]2)NC1=O [Cyclo(Ala-His)] was tested. Which inhibition at 20 µM [1] did it give?
**A.** Its inhibition at 20 µM is 50.2%.

**Q.** And the IC50 [1, 3]?
**A.** Its IC50 is 19.4 µM.

**Q.** What about the Ki [1, 4] of the same compound?
**A.** The Ki was 16.9 µM.

**Q.** Which results are given for O=C1NC(Cc2ccccc2)C(=O)N2CCCC12 (centres unmarked) [Cyclo(Phe-Pro)]?
**A.** SIGMA1 % Inhibition of Max Dose [1]: 24.20%; IC50 [1, 3]: > 20 µM; Ki [1, 4]: > 17.4 µM

**Q.** For O=C1N[C@@H](Cc2ccccc2)C(=O)N[C@H]1Cc1ccccc1 [Cyclo(Phe-Phe)], which “SIGMA1 % Inhibition of Max Dose” value [1] is on record?
**A.** The value was 39.40%.

**Q.** And the IC50 [1, 3]?
**A.** The IC50 was over 20 µM.

**Q.** And the Ki [1, 4]?
**A.** Its Ki is over 17.4 µM.

**Q.** What does the source list for O=C1NC(Cc2ccc(O)cc2)C(=O)N2CC(O)CC12 (centres unmarked) [Cyclo(Hyp-Tyr)]?
**A.** SIGMA1 % Inhibition of Max Dose [1]: 49.80%; IC50 [1, 3]: > 20 µM; Ki [1, 4]: > 17.4 µM

**Q.** Which results are given for O=C1N[C@@H](Cc2ccc(O)cc2)C(=O)N[C@H]1Cc1ccc(O)cc1 [Cyclo(Tyr-Tyr)]?
**A.** SIGMA1 % Inhibition of Max Dose [1]: 40.29%; IC50 [1, 3]: > 20 µM; Ki [1, 4]: > 17.4 µM

**Q.** With cyclo(Ala-Gln) as the compound, how does the % Inhibition of Max Dose [2] read?
**A.** The % Inhibition of Max Dose was 59.7%.

**Q.** What about the IC50 [2] of the same compound?
**A.** Its IC50 is 13.4 µM.

**Q.** With cyclo(Val-Gly) as the compound, how does the % Inhibition of Max Dose [2] read?
**A.** The % Inhibition of Max Dose was 61.9%.

**Q.** And the IC50 [2]?
**A.** Its IC50 is 11.5 µM.

**Q.** How did the % Inhibition of Max Dose [2] turn out when cyclo(Ala-His) was run?
**A.** The % Inhibition of Max Dose was 50.2%.

**Q.** And the IC50 [2]?
**A.** Its IC50 is 19.4 µM.

**Q.** With O=C1CNC(=O)CN1 [Cyclo(Gly-Gly)] as the compound, how does the “SIGMA1 % Inhibition of Max Dose” value [1] read?
**A.** The value was 3.200%.

**Q.** And the IC50 [1, 3]?
**A.** The IC50 was over 20 µM.

**Q.** What about the Ki [1, 4] of the same compound?
**A.** Its Ki is over 17.4 µM.

**Q.** Which results are given for cyclo(Val-Val)?
**A.** IC50 [2]: > 20 µM; Ki [2]: > 17.4 µM

**Q.** For O=C1NC(Cc2ccccc2)C(=O)N2CC(O)CC12 (centres unmarked) [Cyclo(Hyp-Phe)], which “SIGMA1 % Inhibition of Max Dose” value [1] is on record?
**A.** The value was 54.26%.

**Q.** What about the IC50 [1, 3] of the same compound?
**A.** Its IC50 is over 20 µM.

**Q.** What about the Ki [1, 4] of the same compound?
**A.** The Ki was over 17.4 µM.

**Q.** Which Ki [1] does the source give for CC(C)C1NC(=O)CNC1=O (centres unmarked) [Cyclo(Val-Gly)] here?
**A.** Its Ki is 9.95 µM.

**Q.** And the inhibition at 20 µM [1]?
**A.** The inhibition at 20 µM was 61.9%.

**Q.** And the IC50 ([1]; SIGMA1 IC50, [3H]DTG 0.005 μM, membranes of HEK293 cells expressing human SIGMA1)?
**A.** Its IC50 is 11.5 µM.

**Q.** How did the inhibition at 20 µM [1] turn out when C[C@@H]1NC(=O)[C@H](CCC(N)=O)NC1=O [Cyclo(Ala-Gln)] was run?
**A.** The inhibition at 20 µM was 59.7%.

**Q.** And the IC50 [1, 3]?
**A.** The IC50 was 13.4 µM.

**Q.** What about the Ki [1, 4] of the same compound?
**A.** Its Ki is 11.7 µM.
